Drawing on PubChem BioAssay (NCI), this text covers GI50 and TGI for eleven compounds.

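Exposure lasted 48 hours, with cells grown in 96-well plates and compounds tested at five concentrations. GI50 marks 50% less growth. TGI is the concentration that stops growth completely.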

Some test systems named below: HCT-116 colon; M14 melanoma; NCI-H460 lung; SF-295 CNS; SNB-19 CNS; TK-10 renal; XF 498 CNS; M19-MEL melanoma; SR leukemia; NCI/ADR-RES ovarian.
What all share (assay): NCI-60 cell line screen, 48 h

With `[CH3][Sn]1([CH3])[O]CC(COc2cc(Cl)c(Cl)cc2Cl)[O]1` (stereo not given), the GI50 with HCT-116 colon was 73.7 µM; in the assay on M14 melanoma, 39.6 µM; in the assay on NCI-H460 lung it was over 100 µM; in the assay on SF-295 CNS, 38.8 µM; with SNB-19 CNS, over 100 µM; with TK-10 renal it was over 100 µM. Also, in the assay on XF 498 CNS, the GI50 is 68 µM. Besides, the TGI in the assay on HCT-116 colon, in the assay on M14 melanoma, in the assay with NCI-H460 lung, in the assay on SF-295 CNS, in the assay on SNB-19 CNS and in the assay with TK-10 renal was over 100 µM each time. In the assay with XF 498 CNS, this compound yielded a TGI of over 100 µM.
For `O=C1C=Cc2ncccc2C1=O`, the TGI with HCT-116 colon is 31.1 µM; in the assay on M14 melanoma it was 32 µM; with NCI-H460 lung, 38.2 µM; in the assay on SF-295 CNS it was 32.2 µM; with SNB-19 CNS, over 100 µM; in the assay on TK-10 renal it was over 58.8 µM. In the assay on XF 498 CNS, the TGI amounted to 39.3 µM.
Take `COc1cc(C(C#N)NNc2nc(C)cc(=O)[nH]2)cc(OC)c1OC` (stereo not given): the TGI with HCT-116 colon, in the assay on M14 melanoma, in the assay on M19-MEL melanoma, in the assay with NCI-H460 lung, in the assay with SF-295 CNS and in the assay with SR leukemia was over 100 µM in each case. The same compound had a TGI with TK-10 renal of over 100 µM.
Regarding `Cc1c(Cl)cccc1NC(=O)c1sc2nc3c(cc2c1N)CCCC3`, the GI50 is 0.425 µM in the assay on HCT-116 colon; 0.39 µM in the assay on M14 melanoma; 0.473 µM in the assay with NCI-H460 lung; 0.396 µM in the assay with NCI/ADR-RES ovarian; 0.346 µM with SF-295 CNS; 0.979 µM in the assay on SNB-19 CNS. Also, the GI50 was 0.315 µM in the assay on SR leukemia and over 100 µM in the assay with TK-10 renal. The TGI with HCT-116 colon, in the assay on M14 melanoma, with NCI-H460 lung, with NCI/ADR-RES ovarian, with SF-295 CNS and in the assay on SNB-19 CNS was over 100 µM each time. The TGI in the assay on SR leukemia and in the assay on TK-10 renal was over 100 µM in each case.
For H-QIYKKYRTWYRKAWKVLGKV-NH2, the GI50 in the assay on HCT-116 colon was 10.8 µM; with M14 melanoma, 3.06 µM; in the assay on NCI-H460 lung, 3.24 µM; with NCI/ADR-RES ovarian, 4.81 µM; in the assay with SF-295 CNS it was 4.72 µM; in the assay with SNB-19 CNS it was 17.5 µM. Besides, the GI50 with SR leukemia was 3.58 µM; in the assay with TK-10 renal it was 6.35 µM. Further, the TGI with HCT-116 colon is 77.1 µM; with M14 melanoma, 14.1 µM; in the assay with NCI-H460 lung it was 12.4 µM; in the assay with NCI/ADR-RES ovarian, over 100 µM; in the assay on SF-295 CNS it was 23.9 µM; with SNB-19 CNS, 68.6 µM. Besides, the TGI is over 100 µM in the assay with SR leukemia and 29.8 µM in the assay with TK-10 renal.
`N#CC(C(=O)CCCC(=O)Nc1ccc(Cl)cc1Cl)c1ccc(Cl)cc1` (stereo not given): the TGI in the assay with HCT-116 colon, in the assay with M14 melanoma, in the assay on NCI-H460 lung, with SF-295 CNS, in the assay on SNB-19 CNS and in the assay with SR leukemia was over 100 µM throughout. Further, the TGI in the assay with TK-10 renal and in the assay with XF 498 CNS was over 100 µM in each case.
`N#C/C(=C\c1ccc2[nH]ccc2c1)C(=O)c1ccc(O)c(O)c1`: the TGI with HCT-116 colon, in the assay on M14 melanoma, with M19-MEL melanoma, in the assay with NCI-H460 lung, in the assay with NCI/ADR-RES ovarian and in the assay on SF-295 CNS was over 100 µM in each case. Further, the TGI in the assay with SNB-19 CNS, with SR leukemia and in the assay on TK-10 renal was over 100 µM in each case.
Regarding `CCOC(=O)c1c(C)n(Cc2ccccc2)c2c1cc1oc(=O)c(=O)n3cnc2c13`, the GI50 with HCT-116 colon is 7.36 µM; in the assay on M14 melanoma it was 18.3 µM; with NCI-H460 lung, 15.9 µM; in the assay with NCI/ADR-RES ovarian, 18.5 µM; in the assay on SF-295 CNS, 16.2 µM; in the assay with SNB-19 CNS it was 42.4 µM. Also, the figures for the GI50 in the assay on SR leukemia and in the assay with TK-10 renal were 7.99 µM and 15.7 µM, respectively. Also, the TGI was 15.3 µM in the assay on HCT-116 colon; over 50 µM with M14 melanoma; over 50 µM with NCI-H460 lung; over 50 µM with NCI/ADR-RES ovarian; over 50 µM in the assay on SF-295 CNS; over 50 µM in the assay on SNB-19 CNS. In addition, the results for the TGI in the assay with SR leukemia and in the assay on TK-10 renal were over 50 µM and 42.6 µM, respectively.
For the compound `O=S(=O)(O)SCCNCCCCCC1CCCCC1`, the TGI stood at 10.2 µM with HCT-116 colon; 18.4 µM in the assay with M14 melanoma; 9.16 µM with NCI-H460 lung; 41.3 µM with NCI/ADR-RES ovarian; 16.4 µM in the assay on SF-295 CNS; 10.8 µM in the assay on SNB-19 CNS. In addition, the results for the TGI in the assay on SR leukemia and with TK-10 renal were over 33.3 µM and 20.7 µM, respectively.
`Nc1ccn(C2OC(C(OC3OC(CO)C(O)C(N)C3O)C(O)C(O)C(O)C(O)CO)C(N)C(O)C2O)c(=O)n1` (stereo not given): the TGI in the assay on HCT-116 colon was over 100 µM; in the assay on M14 melanoma, over 100 µM; in the assay with NCI-H460 lung it was over 100 µM; in the assay on NCI/ADR-RES ovarian, over 100 µM; in the assay on SF-295 CNS it was 58 µM; with SNB-19 CNS it was over 100 µM. Further, the TGI with SR leukemia and in the assay with TK-10 renal was over 100 µM in each case.
Regarding `CN1CCN(c2ccc3nc(-c4ccc(OCCCCN5CCN(CCCCN6C(=O)c7cccc8cccc(c78)C6=O)CC5)cc4)[nH]c3c2)CC1`, the GI50 was over 100 µM in the assay on HCT-116 colon; over 100 µM in the assay with M14 melanoma; 63.4 µM in the assay with NCI-H460 lung; over 100 µM in the assay on NCI/ADR-RES ovarian; 62.4 µM in the assay on SF-295 CNS; over 100 µM in the assay on SNB-19 CNS. Moreover, the figures for the GI50 with SR leukemia and with TK-10 renal were 12.9 µM and 37.4 µM, respectively. Besides, the TGI with HCT-116 colon, in the assay with M14 melanoma, in the assay with NCI-H460 lung, with NCI/ADR-RES ovarian, with SF-295 CNS and in the assay with SNB-19 CNS was over 100 µM in each case. For the same compound, the TGI with SR leukemia and with TK-10 renal was over 100 µM throughout.
